# According to article PMC10184313, “Inhibition of Thiamine Diphosphate-Dependent Enzymes by Triazole-Based Thiamine Analogues” (ACS Medicinal Chemistry Letters, 2023):
# Read-outs that look alike come from different tables or passages of the source.
# What was measured:
# [1] = molecular target: T1, porcine PDHc E1 (Sus scrofa, UniProt P29804); assay: PDHc E1 inhibitory activity assay (DCPIP reduction); format: biochemical; conditions: for L.E. (ligand efficiency) PDHc E1: binding energy in kcal mol^–1 derived from the KI value per heavy atom
# T1 sequence (P29804 31-390): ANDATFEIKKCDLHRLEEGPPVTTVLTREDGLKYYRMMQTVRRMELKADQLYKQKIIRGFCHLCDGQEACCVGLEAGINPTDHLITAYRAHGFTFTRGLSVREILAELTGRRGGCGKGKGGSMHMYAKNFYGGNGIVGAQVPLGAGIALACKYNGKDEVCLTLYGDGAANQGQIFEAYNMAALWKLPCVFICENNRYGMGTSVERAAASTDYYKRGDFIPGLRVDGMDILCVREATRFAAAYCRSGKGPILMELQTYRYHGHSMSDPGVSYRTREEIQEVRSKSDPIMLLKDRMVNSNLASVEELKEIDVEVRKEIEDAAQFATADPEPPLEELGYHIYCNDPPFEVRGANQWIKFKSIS
# Description: Enzyme assays – Methods and Results S1
# Ligand efficiencies – Calculations S3 […]
# Enzyme assays (Methods and Results)
# PDHc E1 inhibitory activity assay. Porcine PDHc E1 was purchased from Sigma. Its activity was […]
# determined by monitoring 2,6-dichlorophenolindophenol (DCPIP) reduction at 600 nm using a […]
# microplate reader (CLARIOstar) and conducted as described 1,2 with some modifications. The percentage inhibition of compounds against porcine PDHc E1 was assayed at a final concentration of 250 µM. The reaction buffer (50 mM KH 2PO4 and 1 mM MgCl 2, pH 7) contained 50 µM ThDP (or 125 µM in the competition assay), 0.25 mM DCPIP, and 2 mg/ml porcine PDHc E1. The reaction mixture […]
# was preincubated at 37 °C for 30 min, then the reaction was initiated by adding pyruvate to a final […]
# concentration of 50 mM. To determine the half-maximal inhibitory concentration (IC 50 ), ThDP […]
# concentration was lowered to 10 µM, and inhibitor concentration was varied (0.4-200 µM). Specific […]
# activity was calculated using the molar extinction coefficient of DCPIP, 21 mM -1 cm-1.3 The enzyme […]
# IC50 values were calculated from non-linear regression curve fitting using GraphPad Prism.
# [2] = molecular target: T2, S. cerevisiae PDC (Saccharomyces cerevisiae, UniProt P06169); assay: S. cerevisiae PDC inhibitory activity assay (DCPIP reduction); format: biochemical; conditions: compounds insufficiently soluble were excluded; for inhibition at 1500 µM: read-out: Inhibition (%) Yeast PDC
# T2 construct: purchased Sigma
# T2 sequence (P06169 2-563 limits assumed): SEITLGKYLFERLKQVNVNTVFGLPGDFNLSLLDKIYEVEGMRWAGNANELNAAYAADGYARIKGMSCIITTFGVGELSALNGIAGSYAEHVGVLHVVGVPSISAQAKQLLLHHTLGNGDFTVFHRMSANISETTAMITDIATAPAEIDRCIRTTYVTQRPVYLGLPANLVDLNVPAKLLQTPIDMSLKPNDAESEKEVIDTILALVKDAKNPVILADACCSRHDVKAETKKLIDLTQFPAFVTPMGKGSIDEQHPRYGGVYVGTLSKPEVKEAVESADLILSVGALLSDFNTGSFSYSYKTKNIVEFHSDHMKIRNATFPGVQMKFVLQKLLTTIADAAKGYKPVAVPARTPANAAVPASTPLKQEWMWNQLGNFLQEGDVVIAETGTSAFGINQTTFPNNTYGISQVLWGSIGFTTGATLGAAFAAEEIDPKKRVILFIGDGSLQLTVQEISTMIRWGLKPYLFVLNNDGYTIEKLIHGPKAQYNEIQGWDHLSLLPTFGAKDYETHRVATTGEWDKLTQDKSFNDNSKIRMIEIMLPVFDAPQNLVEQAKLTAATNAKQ
# Description: S. cerevisiae PDC inhibitory activity assay. S. cerevisiae PDC was purchased from Sigma. Its activity was determined by monitoring DCPIP reduction at 600 nm using a microplate reader (CLARIOstar) and conducted as described 1,2 with some modifications. The percentage inhibition of compounds was assayed at a final concentration of 1500 µM. The reaction buffer (50 mM KH 2PO4 and 1 mM MgCl 2, pH 7) contained 300 µM ThDP (or 750 µM in the competition assay), 0.27 mM DCPIP, and 0.15 mg/ml S. cerevisiae PDC. The reaction mixture was preincubated at 37 °C for 60 min, then reaction was initiated by adding pyruvate to a final concentration of 70 mM. Specific activity was calculated using the molar extinction coefficient of DCPIP, 21 mM -1 cm -1.3 […]
# [3] = [Compound] = 250 μM, [ThDP] = 50 μM
# [4] = [Compound] = 1.5 mM, [ThDP] = 0.3 mM
# [5] = increased ThDP: [Compound] = 250 μM, [ThDP] = 125 μM
# [6] = increased ThDP: [Compound] = 1500 μM, [ThDP] = 750 μM
Compound,"Inhibition (%) PDHc E1 [1, 3]","inhibition at 1500 µM [2, 4]","Inhibition (%) Yeast PDC [2, 4]","Inhibition (%) PDHc E1 [1, 5]","Inhibition (%) Yeast PDC [2, 6]",Ki [1],L.E. (ligand efficiency) PDHc E1 [1],"inhibition at 1500 µM [2, 6]"
Cc1ncc(Cn2cc(CCO)nn2)c(N)n1 [Compound 9a],55 ± 2%,37 ± 3%,,,,,,
Cc1ncc(Cn2cc(CCCO)nn2)c(N)n1 [Compound 9b],52 ± 3%,35 ± 2%,,,,,,
Cc1ncc(Cn2cc(CCCCO)nn2)c(N)n1 [Compound 9c],57 ± 2%,33 ± 4%,,,,,,
Cc1ncc(Cn2cc(CCOC(=O)c3cccc(-c4noc(C(F)(F)F)n4)c3)nn2)c(N)n1 [Compound 13a],72 ± 2%,,Insoluble,,,,,
Cc1ncc(Cn2cc(CCOC(=O)c3cccc(C#N)c3)nn2)c(N)n1 [Compound 14a],71 ± 4%,,Insoluble,,,,,
Cc1ncc(Cn2cc(CCn3cc(-c4ccccc4)nn3)nn2)c(N)n1 [Compound 15a],45 ± 3%,,Insoluble,<20%,Insoluble,,,
Cc1ncc(Cn2cc(CCCn3cc(-c4ccccc4)nn3)nn2)c(N)n1 [Compound 15b],65 ± 4%,,Insoluble,40 ± 4%,Insoluble,,,
Cc1ncc(Cn2cc(CCCCn3cc(-c4ccccc4)nn3)nn2)c(N)n1 [Compound 15c],> 90%,,Insoluble,75 ± 4%,Insoluble,,,
Cc1ncc(Cn2cc(CCn3cc(-c4ccc(F)cc4)nn3)nn2)c(N)n1 [Compound 16a],42 ± 2%,,Insoluble,<20%,Insoluble,,,
Cc1ncc(Cn2cc(CCCn3cc(-c4ccc(F)cc4)nn3)nn2)c(N)n1 [Compound 16b],66 ± 4%,,Insoluble,43 ± 2%,Insoluble,,,
Cc1ncc(Cn2cc(CCCCn3cc(-c4ccc(F)cc4)nn3)nn2)c(N)n1 [Compound 16c],> 90%,,Insoluble,79 ± 2%,Insoluble,,,
COc1ccc(-c2cn(CCc3cn(Cc4cnc(C)nc4N)nn3)nn2)cc1 [Compound 17a],46 ± 4%,,Insoluble,<20%,Insoluble,,,
COc1ccc(-c2cn(CCCc3cn(Cc4cnc(C)nc4N)nn3)nn2)cc1 [Compound 17b],71 ± 2%,,Insoluble,45 ± 3%,Insoluble,,,
COc1ccc(-c2cn(CCCCc3cn(Cc4cnc(C)nc4N)nn3)nn2)cc1 [Compound 17c],> 90%,,Insoluble,82 ± 4%,Insoluble,0.03 µM,0.34,
Cc1ncc(Cn2cc(CCNS(=O)(=O)C(F)(F)F)nn2)c(N)n1 [Compound 18a],50 ± 2%,< 20%,,,,,,
Cc1ncc(Cn2cc(CCCNS(=O)(=O)C(F)(F)F)nn2)c(N)n1 [Compound 18b],55 ± 2%,37 ± 4%,,,,,,

Compound,"Inhibition (%) PDHc E1 [1, 3]","inhibition at 1500 µM [2, 4]","Inhibition (%) Yeast PDC [2, 4]","Inhibition (%) PDHc E1 [1, 5]","Inhibition (%) Yeast PDC [2, 6]",Ki [1],L.E. (ligand efficiency) PDHc E1 [1],"inhibition at 1500 µM [2, 6]"
Cc1ncc(Cn2cc(CCCCNS(=O)(=O)C(F)(F)F)nn2)c(N)n1 [Compound 18c],71 ± 3%,,Insoluble,,,,,
Cc1ncc(Cn2cc(CCNC(=O)c3cccc(-c4noc(C(F)(F)F)n4)c3)nn2)c(N)n1 [Compound 19a],48 ± 3%,,Insoluble,,,,,
Cc1ncc(Cn2cc(CCNC(=O)c3cccc(C#N)c3)nn2)c(N)n1 [Compound 20a],46 ± 4%,< 20%,,,,,,
COc1cccc(C(=O)NCCc2cn(Cc3cnc(C)nc3N)nn2)c1 [Compound 21a],67 ± 4%,48 ± 2%,,,,,,
COc1cccc(C(=O)NCCCc2cn(Cc3cnc(C)nc3N)nn2)c1 [Compound 21b],61 ± 2%,38 ± 5%,,,,,,
COc1cccc(C(=O)NCCCCc2cn(Cc3cnc(C)nc3N)nn2)c1 [Compound 21c],60 ± 5%,,Insoluble,,,,,
COc1ccccc1C(=O)NCCc1cn(Cc2cnc(C)nc2N)nn1 [Compound 22a],83 ± 4%,61 ± 4%,,,,,,
COc1ccccc1C(=O)NCCCc1cn(Cc2cnc(C)nc2N)nn1 [Compound 22b],58 ± 3%,,Insoluble,,,,,
COc1ccccc1C(=O)NCCCCc1cn(Cc2cnc(C)nc2N)nn1 [Compound 22c],58 ± 2%,,Insoluble,,,,,
Cc1ncc(Cn2cc(CCC(=O)NO)nn2)c(N)n1 [Compound 24a],77 ± 3%,41 ± 3%,,,,,,
Cc1ncc(Cn2cc(CCCC(=O)NO)nn2)c(N)n1 [Compound 24b],> 90%,65 ± 2%,,70 ± 3%,,,0.50,42 ± 4%
Cc1ncc(Cn2cc(CCCCC(=O)NO)nn2)c(N)n1 [Compound 24c],> 90%,63 ± 4%,,73 ± 4%,,,0.48,37 ± 4%
Cc1ncc(Cn2cc(CCC(=O)Nc3ccccc3N)nn2)c(N)n1 [Compound 26a],75 ± 5%,< 20%,,,,,,
Cc1ncc(Cn2cc(CCCC(=O)Nc3ccccc3N)nn2)c(N)n1 [Compound 26b],59 ± 2%,28 ± 3%,,,,,,
Cc1ncc(Cn2cc(CCCCC(=O)Nc3ccccc3N)nn2)c(N)n1 [Compound 26c],64 ± 4%,< 20%,,,,,,
"Cc1ncc(C[n+]2csc(CCO[P@@](=O)(O)OP(=O)(O)O)c2C)c(O)n1 [OxThDP 7b, oxythiamine diphosphate, reference compound]",> 90%,81 ± 3%,,75 ± 3%,,,,63 ± 3%
